In patent US20100317729A1 (GW Pharma Limited, priority 2007, published 2010):

What was measured:
[1] = biological target: T1, hCB2 receptors (Homo sapiens, UniProt P34972); assay: [35S]GTPγS binding assay, CHO-hCB2 cell membranes; type: biochemical; details: for KB-value times less than Ki-value: CHO cell membranes, KB ([35S]GTPγS) versus Ki ([3H]CP55940 displacement)
T1 construct: expressed in transfected cells; host or cells: CHO cells
Description: (§1) Nonspecific binding was measured in the presence of 30 μM GTPγS.
The concentrations of [^35S]GTPγS and GDP present in the assay varied depending on whether the assay was conducted with mouse brain or transfected cell membranes. When the assay was conducted with mouse brain membranes, 0.1 nM [^35S]GTPγS and 30 μM GDP were present, whereas the corresponding concentrations present when the assay was conducted with transfected cell membranes were 1 nM and 320 μM respectively.
Additionally, mouse brain membranes were preincubated for 30 minutes at 30° C. with 0.5 U ml^−1 adenosine deaminase to remove endogenous adenosine. Agonists and antagonists were stored as a stock solution of 1 or 10 mM in DMSO, the vehicle concentration in all assay tubes being 0.11% DMSO.
Net agonist-stimulated [^35S]GTPγS binding values were calculated by subtracting basal binding values (obtained in the absence of agonist) from agonist-stimulated values (obtained in the presence of agonist) as detailed elsewhere (Ross et al., 1999a).
(§2) The apparent dissociation constant (KB) values for antagonism of agonists by THCV in the vas deferens or [^35S]GTPγS binding assay have been calculated by Schild analysis from the concentration ratio, defined as the concentration of an agonist that elicits a response of a particular size in the presence of a competitive reversible antagonist at a concentration, B, divided by the concentration of the same agonist that produces an identical response in the absence of the antagonist.
(§3) Mean values have been compared using Student's two-tailed t-test for unpaired data or one-way analysis of variance (ANOVA) followed by Dunnett's test (GraphPad Prism). A P-value <0.05 was considered to be significant.

[2] = test system: vas deferens; assay: Electrically-evoked twitch response of the vas deferens; details: at concentrations that antagonise cannabinoids
Description: Inhibition of the electrically-evoked twitch response of the vas deferens has been expressed in percentage terms and this has been calculated by comparing the amplitude of the twitch response after each addition of a twitch inhibitor with its amplitude immediately before the first addition of the inhibitor. Contractile responses to phenylephrine and β,γ-methylene-ATP have been expressed as increases in tension (g).
as §2

[3] = biological target: T2, CB1 receptor (Mus musculus, UniProt P47746); assay: [35S]GTPγS binding assay, mouse brain membranes; type: biochemical
T2 construct: membranes prepared from healthy brain tissue, which is densely populated with CB1 but not CB2 receptors; from tissue; host or cells: mouse brain membranes
T2 sequence (P47746 whole entry): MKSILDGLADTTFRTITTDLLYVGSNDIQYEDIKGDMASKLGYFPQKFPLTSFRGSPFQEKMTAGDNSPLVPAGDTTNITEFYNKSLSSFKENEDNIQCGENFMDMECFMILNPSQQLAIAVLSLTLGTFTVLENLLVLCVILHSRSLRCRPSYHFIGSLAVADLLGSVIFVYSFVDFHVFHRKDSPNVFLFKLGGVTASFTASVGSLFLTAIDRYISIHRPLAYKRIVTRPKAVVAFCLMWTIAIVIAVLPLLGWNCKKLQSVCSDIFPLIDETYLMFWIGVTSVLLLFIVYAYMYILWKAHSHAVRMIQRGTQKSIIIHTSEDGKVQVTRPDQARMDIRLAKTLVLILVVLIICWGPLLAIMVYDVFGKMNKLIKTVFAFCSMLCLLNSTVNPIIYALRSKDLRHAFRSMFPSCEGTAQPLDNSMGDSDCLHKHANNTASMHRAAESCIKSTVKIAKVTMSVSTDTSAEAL
Description: as §1
The concentrations of [^35S]GTPγS and GDP present in the assay varied depending on whether the assay was conducted with mouse brain or transfected cell membranes.
Additionally, mouse brain membranes were preincubated for 30 minutes at 30° C. with 0.5 U ml^−1 adenosine deaminase to remove endogenous adenosine.
as §2, §3

[4] = clinical study, at least some of the patients; cited from earlier work
[5] = biological target: T2, CB1 receptor; assay: Radioligand displacement assay, mouse brain membranes; type: binding
Description: Binding was initiated by the addition of either the brain membranes (33 μg protein per tube) or the transfected hCB2 cells (25 μg protein per tube).
All assays were performed at 37° C. for 60 min before termination by addition of ice-cold wash buffer (50 mM Tris buffer, 1 mg ml^−1 bovine serum albumin, pH 7.4) and vacuum filtration using a 24-well sampling manifold and GF/B filters that had been soaked in wash buffer at 4° C. for at least 24 h.
Each reaction tube was washed six times with a 1.2 ml aliquot of wash buffer. The filters were oven-dried for 60 min and then placed in 5 ml of scintillation fluid. Radioactivity was quantified by liquid scintillation spectrometry.
Specific binding was defined as the difference between the binding that occurred in the presence and absence of 1 μM unlabelled CP55940.
Values are expressed as means and variability as s.e.mean or as 95% confidence limits.

T1 sequence (P34972 whole entry): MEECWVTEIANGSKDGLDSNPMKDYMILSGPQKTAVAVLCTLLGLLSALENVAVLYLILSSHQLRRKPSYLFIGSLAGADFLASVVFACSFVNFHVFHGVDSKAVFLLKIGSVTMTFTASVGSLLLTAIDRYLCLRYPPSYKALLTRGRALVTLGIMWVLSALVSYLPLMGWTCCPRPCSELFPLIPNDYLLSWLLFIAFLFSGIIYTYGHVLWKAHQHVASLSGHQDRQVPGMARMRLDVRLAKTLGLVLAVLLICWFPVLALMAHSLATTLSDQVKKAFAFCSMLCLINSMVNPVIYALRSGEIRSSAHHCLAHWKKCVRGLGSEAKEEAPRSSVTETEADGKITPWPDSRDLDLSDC

## CCCc1cc(O)c2c(c1)OC(C)(C)[C@@H]1CCC(C)=C[C@@H]21 [THCV, tetrahydrocannabidivarin]
[1]; CHO-hCB2 cell membranes, at concentrations that antagonise cannabinoids
  effect by itself on the ability of [35S]GTPγS to bind: did not affect
[2]
  effect by itself on the amplitude of the electrically-evoked contractions: did not affect
[3]; mouse brain membranes, at concentrations that antagonise cannabinoids
  effect by itself on the ability of [35S]GTPγS to bind: did not affect

## Cc1c(C(=O)NN2CCCCC2)nn(-c2ccc(Cl)cc2Cl)c1-c1ccc(Cl)cc1 [SR141716A]
[4]
  depression in patients enrolled in the trials: significant increase in depression

## C=C(C)[C@@H]1CCC(C)=C[C@H]1c1c(O)cc(CCCCC)cc1O [CBD, cannabidiol]
[1]
  KB-value times less than Ki-value: 65 times
[3]; 10 μM, both compounds, mouse brain membrane
  inhibitory effect on [35S]GTPγS binding compared with SR141716A: greatly exceeded that of SR141716A
[3]; compound alone at 1 and 10 μM
  inhibition of [35S]GTPγS binding to the mouse brain membrane: significant inhibition

## SR144528 [reference compound]
[1]
  KB-value times less than Ki-value: 15 times

## CCCCCCC(C)(C)c1ccc([C@@H]2C[C@H](O)CC[C@H]2CCCO)c(O)c1 [[^3H]CP55940]
[5]
  Kd: 2.31 nM
